# Where “and” joins values, the source holds several entries; their conditions need not be identical. Identical values can stand only once. Entries after “also recorded” stand apart in the source; their conditions may differ.
# What was measured:
# [1] = test system: immobilized peptide (SU2, SU5, TM2 or TM3-19); assay: ELISA anti-peptide titre during the immunization of cats; format: in vivo; settings: individual cats immunized with KLH-coupled peptide; absorbance at 405 nm greater than 0.1
# Description: (§1) Groups of four cats 4½ months old are immunized subcutaneously with 120 μg of FIV peptide (approximately 250 μg of peptide coupled to KLH (keyhole limpet haemocyanin)), emulsified in complete Freund's adjuvant.
# (§2) Four repeat immunizations are administered subcutaneously in an incomplete Freund's adjuvant, generally at intervals of 2-3 weeks, although the interval between the last 2 […] was 7 weeks.
# (§3) The production on of antibodies is evaluated before the test by means of an ELISA using an immobilized peptide (SU2, SU5, TM2 or TM3-19) and immunoprecipitation. After the test, the seroconversion is monitored by an ELISA using immobilized envelope peptides and a recombinant FTV capsid protein.
# (§4) The ELISA with the immobilized envelope peptides corresponding to the immunogenic domains SU2 and TM2 and with the immobilized recombinant p25 protein (FIV capsid protein) is carried out as described in Avraméas A. et al. (Res. Virol., 1993, 144, 209-218).
# (§5) Microplates (Immunolon II, Dynatech) are coated with 0.5 μg/well for the peptides and with 0.1 μg/well for the p25 protein.
# (§6) The tests are carried out in duplicate and the results are expressed as average values.
# The anti-peptide titres before the test are expressed as the logarithm of the inverse of the last dilution of serum which gives an absorbance (at 405 nm) of greater than 0.1.
# [2] = test system: envelope glycoproteins of the Petaluma strain; assay: Immunoprecipitation of envelope glycoproteins by sera (metabolically labelled FL-4 cells); format: in vivo, FIV; settings: lysates of chronically infected FL-4 cells; groups of four cats
# Description: The sera collected on the day of the test (at a dilution of 1/40) are used to immunoprecipitate the envelope glycoproteins derived from the metabolically labelled FL-4 cells and feline mononuclear cells (PBM cells) infected with the FIV Wo strain, as described in G. Pancino et al. (Virology, 1995, 206, 796-806).
# The recognition of the envelope glycoproteins is estimated by immunoprecipitation of the biosynthetically labelled envelope glycoprotein with sera collected on the day of the test, as summarized in Table I.
# FIV Petaluma strain = assay: Neutralization of infection of CrFK cells by sera of immunized cats; format: cell-based; settings: CrFK cell line
# Description: The detection of antibodies neutralizing the infection of the CrFKs with the FIV Petaluma strain is carried out as described previously (Richardson J. et al., J. Gen. Virol., 1996, 77, 759-771).
# To evaluate the function of the antibodies, the feline sera directed against the SU2 peptide are tested for their neutralizing value with respect to the infection of CrFK cells with the FIV Petaluma strain.
# SU2 envelope peptide = assay: Seroconversion ELISA after the virulence test, SU2 peptide; format: in vivo, cats; settings: ELISA, seral dilution 1/25; individual cats
# Description: (§7) The cats are subjected to a virulence test, one week after the final immunization, by means of an intraperitoneal inoculation of 10 CID50 of FIV Wo isolate, one CID50 corresponding to the dose capable of infecting 50% of the cats.
# as §3, §4, §5, §6
# (§8) After the test, the seroconversion against the envelope peptides and the p25 protein is evaluated at serum dilutions of 1/25 and 1/100, respectively.
# (§9) The absorbance values (at 405 nm) are corrected by subtraction of the absorbance values obtained by binding with an immobilized control peptide.
# (§10) The tests are normalized with reference to the binding of a mixture of serum from cats infected with FIV with a peptide representing the immunodominant domain of the FIV transmembrane glycoprotein (TM2) (Avraméas A. et al., Res. Virol., 1993, 144, 209-218).
# TM2 envelope peptide = assay: Seroconversion ELISA after the virulence test, TM2 peptide; format: in vivo, cats
# Description: as §7, §3, §4, §5, §6, §8, §9, §10
# [3] = test system: p25 recombinant FIV capsid protein; assay: Seroconversion ELISA after the virulence test, p25; format: in vivo, cats; settings: ELISA, seral dilution 1/100; individual cats
# Description: as §7, §3, §4, §5, §6, §8, §9, §10
# CD4+ T lymphocytes = assay: Counting of circulating CD4+ T lymphocytes by flow cytometry; format: in vivo, cats; settings: acute infection with FIV Wo, FIG. 2
# Description: Counting of the CD4^+ T lymphocytes is carried out at regular intervals before the test, on the day of the test and at regular intervals during the acute infection.
# The CD4^+ T lymphocytes are counted by flow cytometry, using monoclonal antibodies (Clinisciences).
# To evaluate the effect of the immunization on the pathology associated with a primary infection, circulating CD4^+ lymphocytes are counted before and after the test with the FIV Wo strain.
# FIV Wo isolate = assay: Plasmatic viral load by competitive RT-PCR after the virulence test; format: in vivo, cats; settings: after test with 10 CID50 of Wo isolate, relative to control cats, FIG. 3
# Description: as §1, §2, §7
# The plasma is filtered (0.45 μm) and the RNA not associated with cells is extracted directly from the filtered plasma using the Viral RNA kit (Qiagene) and eluted in 50 μl of water according to the manufacturer's instructions, and the RNA is then divided into aliquots and stored at −80° C.
# A conserved region of the FIV gag gene is selected as a target sequence for the reverse transcription of the competitive RNA and the overlapping PCR amplification.
# For the synthesis of the cDNA, 2.5 μl of viral RNA are mixed with 2.5 μl containing different numbers of copies of competitive RNA; typically, the various samples of competitive RNA are prepared using 5 semi-logarithmic dilutions, straddling the number of copies estimated in the biological sample.
# The RNA is denatured at 65° C. for 5 minutes and immediately placed on ice. The reagents for the reverse transcription (15 μl) are added.
# The final reaction mixtures contain 0.3 U/ml of random hexanucleotides (sequences of 6 randomly aligned nucleotides which make it possible theoretically to amplify any RNA fragment) (Pharmcia), 0.5 mM of dNTP, 10 mM of DTT, 1× of commercial buffer (Gibco BRL) and 100 U of Superscript II (Glbco BRL), in a volume of 20 μl.
# The reactions are first carried out at 25° C. for 10 minutes to promote the hybridization of the primers, and then at 42° C. for 50 minutes. The reverse transcriptase is inactivated by incubation at 95° C. for 5 minutes.
# The highly conserved sequences are selected as primers. The complementary DNA is amplified by overlapping PCR, using:
# For the first amplification, the PCR reagents (80 μl) are added as a mixture with 20 μl of cDNA.
# The DNA is denatured at 94° C. for 3 minutes, subjected to 28 cycles of amplification (94° C. 30 s/55° C. 30 s/72° C. 30 s) and to an elongation at 72° C. for 7 minutes.
# For the overlapping amplification, 2 μl of the product of the first amplification is transferred into 98 μl of reaction mixture containing 200 μM of dNTP, 1.5 mM of MgCl2, 0.5 μM of each internal primer, 1× of commercial buffer (Gibco BRL) and 0.25 U of Taq polymerase (Gibco BRL).
# The DNA is denatured at 94° C. for 3 minutes, subjected to 28 cycles of amplification (94° C. 30 s/52° C. 30 s/72° C. 30 s) and to an elongation at 72° C. for 7 minutes.
# The amplification products (10 μl ) are subjected to electrophoresis on 2.75% agarose gel.
# Digital images of the gels stained with ethidium bromide are obtained using the Appligene Imager and the densitometry analyses are carried out with the Image NIH software. The density of the competitive product is adjusted as a function of the difference between the length of the native sequence and that of the competitive sequence.
# The logarithm of the ratio:density or competitive product/density of the native product, is plotted as a function of the logarithm of the number of copies of competitive RNA added to each reaction.
# The best adjustment is determined by the least-squares method and the number of copies of native RNA corresponds to the intersection of the axis of the Xs (Piatak M. Jr. et al., Biotechniques, 1993, 14, 70-80).
# The cumulative area under the curve (Dawson J., Drug Information J., 1994, 28, 723-732) is calculated from graphs illustrating the ratio: copies of viral RNA/ml of plasma/time, and compared with the Mann-Whitney test.
# [4] = ELISA, seral dilution 1/25, individual cats
substance,measurement,setting,value
"SU5: peptide of the SU5 domain of the FIV surface envelope glycoprotein, SEQ ID NO: 3, used as immunogen (QVVKQPDYLVVPGEVMEYKPRR)","Anti-peptide titre, 1st injection",[1],5.01 logarithm of the inverse of the last dilution of serum and 5.31 logarithm of the inverse of the last dilution of serum and 4.71 logarithm of the inverse of the last dilution of serum and >5.61 logarithm of the inverse of the last dilution of serum
same,"Anti-peptide titre, 2nd injection",[1],5.31 logarithm of the inverse of the last dilution of serum (3×) and 5.01 logarithm of the inverse of the last dilution of serum
same,"Anti-peptide titre, Day of the test",[1],4.71 logarithm of the inverse of the last dilution of serum and 5.01 logarithm of the inverse of the last dilution of serum (3×)
same,cats whose sera immunoprecipitate the envelope glycoproteins of the Petaluma strain,[2],all the cats
same,neutralizing antibodies in sera of immunized cats,FIV Petaluma strain,do not neutralize
same,"Binding of the sera to SU2, 3 weeks after the virulence test",SU2 envelope peptide,0 optical density
same,"Binding of the sera to SU2, 4 weeks after the virulence test",SU2 envelope peptide,1.9 optical density and 0.5 optical density and 0 optical density (2×)
same,"Binding of the sera to SU2, 5 weeks after the virulence test",SU2 envelope peptide,2.4 optical density and 0.7 optical density and 0.1 optical density and 0 optical density
same,"Binding of the sera to TM2, 3 weeks after the virulence test",TM2 envelope peptide; [4],2.3 optical density and 0 optical density (2×) and 0.1 optical density
same,"Binding of the sera to TM2, 4 weeks after the virulence test",TM2 envelope peptide; [4],2.9 optical density and 2.8 optical density and 2.4 optical density and 0 optical density
same,"Binding of the sera to TM2, 5 weeks after the virulence test",TM2 envelope peptide; [4],3.0 optical density and 3.1 optical density and 2.8 optical density and 0 optical density
same,response against the TM2 peptide,TM2 envelope peptide; at 4 weeks after the test,developed a large response
same,"Binding of the sera to p25, 3 weeks after the virulence test",[3],0.1 optical density and 0 optical density (3×)
same,"Binding of the sera to p25, 4 weeks after the virulence test",[3],2.7 optical density and 1.0 optical density and 0.2 optical density and 0 optical density
same,"Binding of the sera to p25, 5 weeks after the virulence test",[3],2.9 optical density and 2.2 optical density and 0.8 optical density and 0 optical density
same,number of CD4+ lymphocytes after the infection,CD4+ T lymphocytes,gradual reduction
same,"course of the primary infection (viral RNA in plasma, viral dissemination)",FIV Wo isolate,"the acute infection of 3 cats followed kinetics similar to those of the control cats, while infection in one of the cats appears in a retarded manner; also recorded: do not modify the course of the infection"

# From patent publication US6391304B1, “Peptides derived from the ENV gene of the feline immunodeficiency virus and their applications” (Centre National de la Recherche Scientifique, priority 1997, dated 2002)
